Laboratory results as given in US20260193647A1, “MIRNA-BASED CANCER THERAPY WITH A TUMOR-NAVIGATING PEPTIDE” (The Board of Trustees of the Universities of Illinois, priority 2022, published 2026).

Legend:
[1] = system: miR-20a; experiment: miR-20a expression levels by stem loop qPCR in treated cells; assay type: cell-based, human; conditions: 10 nM, 24 hr
From the text: Micro RNA enriched fraction was extracted using the miRNeasy Mini Kit (Qiagen, Catalog #217004) following the manufacturer's instructions. Stem loop real-time qPCR was used to analyze miRNA expression. We designed miR-20a stem loop RT primers and amplification primers according to a previously described method 79. cDNA was synthesized from extracted RNA using unique stem loop RT primers. The sequence of the stem loop primer for miR-20a was 5′-[…]-3′ (SEQ ID NO:7). Reverse transcriptase reactions contained the following reagents: 10 ng of RNA sample, 60 nM stem-loop RT primer, 1×RT buffer, 0.25 mM dNTP, and 4 U/μl reverse transcriptase. Reactions were performed by incubation at 16° C. for 30 min, 42° C. for 30 min and 85° C. for 5 min. Real-time PCR (7300 Real time PCR Systems, Applied Biosystems, CA) was performed using the specific forward primer for miR-20a (5′-[…]-3′ (SEQ ID NO:8)) and a universal reverse primer (5′-GTGCA GGGTC CGAGGT-3′ (SEQ ID NO:9)). The 20-μl PCR mixture included 1×SYBR Premix (Invitrogen), 2 μl of RT products and each forward and reverse primer at 10 nM. Reactions were performed by incubation in a 96-well plate at 95° C. for 30 sec, followed by 35 cycles of 95° C. for 30 sec and 60° C. for 30 sec. U6 was used as an internal control to normalize the level of target miRNAs. The results were verified by performing PCR using M13 modified forward and reverse primers specific to stem loop sequence. The PCR products were visualized in 2% agarose gels and DNA-sequence was confirmed. Human tumor and serum samples were obtained from patients who had signed informed consent and the institutional review board approval was obtained in Pediatric Brain Tumor Consortium (PBTC-041) participating sites.

[2] = system: astrocytes; experiment: Annexin V/PI flow cytometric apoptosis assay, astrocytes; assay type: cell-based, human; conditions: 10 nM, 24 h
Experimental: (§1) Cells were seeded into 10-cm dishes and cultured overnight. Then, the cells were treated with 10 nM antisense miR-20a alone, p28 alone or AmiR20-p28 for 24 hr. Cells were washed with 1×PBS, detached with TrypleE (Invitrogen). and collected by centrifugation. Cells were washed and resuspended with 1× Annexin binding buffer (Life Technologies, catalog #V13242), and the cell density was maintained at 10^6 cells/ml. Subsequently, 5 μl of Annexin-V was added to 100 μl of the cell suspension, and the mixture was incubated for 15 min at room temperature. The cells were washed and incubated with 5 μl of PI for an additional 15 min on ice, washed and resuspended in 200 μl of buffer. Cells without treatment were used as controls. After washing, cells were subjected to flow cytometry (Gallios flow cytometer) and analyzed with Kaluza software to give the proportions of dead (top left quadrant), late apoptotic (top right quadrant), early apoptotic (bottom right quadrant) and viable (bottom left quadrant) cells.

[3] = system: SJ-GBM2-luc tumors; experiment: Intracranial orthotopic SJ-GBM2-luc xenograft: bioluminescence and survival; assay type: in vivo, mice
Experimental: All animal experiments were performed in accordance with the use of animals in research and approved by IACUC. SJ-GBM2 cells stably expressing luciferase gene (pGL4.51 [luc2/CMV/Neo], Promega) were generated by a chemical transfection method (FuGENE HD, Promega) in the presence of G418 antibiotics (GoldBio). 4-5 weeks athymic mice were purchased from The Jackson Laboratory. SJ-GBM2-luc cell lines was maintained to 70% confluency and checked for their luminescence activity. Similar to the implantation method described previously, cells were resuspended in PBS at a final concentration of 10^6 cells/3 μl. Following anesthesia, a midline incision was made on the calvarium, extending from bregma to lambda sutures. At a position 2 mm posterior to bregma and 2 mm lateral to the […], a 3-mm hole was made in the skull. A 26-gauge Hamilton syringe was inserted into the hole, and 3 μl of 10^6 cells was injected slowly. The injection site was covered with sterile bone wax and sutured. As the first set of experiment, mice were randomly divided into the experimental groups and the dose finding studies were conducted with AmiR20-p28 at 0.1, and 1 mg/kg. AmiR20-p28 was administered every other day three times a week i.v. via the tail vein (200 μl/injection). As the second set of experiment, mice were randomly divided into the groups of PBS or AmiR20-p28 at 1 and 5 mg/kg (N=5). […] Mice were sacrificed based on the following humane endpoints such as >20% weight loss, the presence of labored respiration, abnormal behavior (e.g., paralysis), and loss of the ability to ambulate.
D-Luciferin potassium salt (GoldBio, #LUCK-100) at 150 mg/kg was injected intraperitoneally into the mice. Mice were anesthetized in a chamber with isoflurane/oxygen and positioned for bioluminescent imaging using a Spectral Lago X imaging system (Accela, Czech Republic). A series of images was acquired over a duration up to 30 min after the time of D-luciferin injection. Aura software (version 3.2) was used to compute regions of interest (ROIs) and integrate the total bioluminescence signal in each ROI. Data were analyzed based on radiance (photons/second/cm^2/steradian) in the ROIs. The radiance values were plotted for each animal in the experimental group to form the tumor growth curve. Overall survival was also evaluated based on their survival period (mice died due to disease or were sacrificed based on the humane endpoints criteria). For X-ray imaging, the anesthetized mice were positioned, and a Spectral Lago X imaging system was used to take images. Aura software was used to merge the images taken with X-ray and bioluminescent systems.

[4] = system: CHLA-200 cells; experiment: Annexin V/PI flow cytometric apoptosis assay, CHLA-200; assay type: cell-based, human; conditions: 10 nM, 24 h
Experimental: as §1

[5] = system: 3D Human Blood Brain Barrier Model
Experimental: Permeability experiments were carried out in a 3D Human Blood Brain Barrier Model kit (Alphabioregen, Catalog #EP010). The BBB kits were activated following the manufacturer's instructions. Briefly, the BBB model was thawed using BBB growth medium (#BBB-GM001) and incubated overnight with fresh BBB growth medium. The model was incubated with Endo-Neuro-Pharmaceuticals medium (#NMBBB001) for 3 days. AmiR20-p28 was prepared in assay buffer (Dulbecco's PBS containing CaCl2 and MgCl4, 100 mM HEPES, pH 7.0, 25 mM D-glucose). The permeability of AmiR20-p28 was measured in two directions: apical to basolateral (A-B) and basolateral to apical (B-A). The apical side represented the blood, and the basolateral side represented the brain tissue. For transport, the inserts from the BBB wells were transferred to another well containing prewarmed assay buffer. Depending on the direction, the medium in the donor compartment of the BBB model was replaced with AmiR20-p28. The plate was incubated for 30 min at 37° C. Samples were then collected from the donor and acceptor compartments and analyzed by real-time PCR. The concentrations of AmiR20-p28 in the compartments were calculated based on a standard curve developed with AmiR20-p28 at 1, 10, 100 and 1,000 nM and its relative Ct value obtained from real-time PCR. […]

[6] = system: MDA-MB231, SKOV3, Mia-Paca2, Colon 205 and DU145 cells; experiment: CCK-8 cell viability assay, other solid tumor cells; assay type: cell-based, human; conditions: 10 nM
Experimental: Cell viability was evaluated by a CCK-8 assay (Dojindo, Japan). Cells were seeded at a density of 4,000 cells per well in 100 μl of growth medium in 96-well plates and grown overnight. Then, the cells were exposed to antisense miR-20a alone, p28 alone or negative control or AmiR20-p28 over a range of concentrations and incubated for 24 hr. According to the manufacturer's instructions, 10 μl of CCK-8 solution was added to each well, followed by incubation for 1 hr at 37° C. The absorbance at 450 nm was determined by a multiplate reader.

[7] = Example 6, 1 mg/kg i.v., late phase

Substance: AmiR20-p28: BBB-permeable tumor-navigating CPP p28 (Cys-p28) covalently linked to 2′ O-methyl antisense miR-20a (5′-maleimide)
- miR-20a expression levels reduced by ([1]; CHLA-200 cells): 96%
- miR-20a expression levels reduced by ([1]; LN-229 cells): 84%
- miR-20a expression levels reduced by ([1]; SJ-GBM2 cells): 94%
- miR-20a levels ([1]; normal human astrocytes): not significantly altered
- apoptotic cells after treatment [2]: 0.5%
- tumor recurrence ([3]; 1 and 5 mg/kg, continued or stopped treatment after four weeks, additional ~two months): neither the 1 mg/kg nor the 5 mg/kg dose groups exhibited any signs of tumor recurrence
- tumor growth (bioluminescence) ([3]; 1 or 5 mg/kg i.v. 3× weekly, vs PBS or 0.1 mg/kg): significant inhibition of tumor growth
- overall survival rate ([3]; Example 6, 1 mg/kg i.v., early phase): 100%
- tumor growth (bioluminescence) ([3]; Example 6, 1 mg/kg i.v., early phase, start 10 days after cell injection): complete repression of tumor
- mice survived at day 49 [3, 7]: 80%
- overall survival rate [3, 7]: 40%
- tumor growth (bioluminescence) ([3]; Example 6, 1 mg/kg i.v., late phase, start 40 days after cell injection): tumor progression was observed
- overall survival rate ([3]; Example 6, 1 mg/kg i.v., middle phase): 80%
- tumor growth (bioluminescence) ([3]; Example 6, 1 mg/kg i.v., middle phase, start 20 days after cell injection): sustained suppression of the tumor burden
- tumor growth (bioluminescence) ([3]; Example 7, 1 mg/kg i.v., early phase, 10 days after cell injection): complete repression of tumor
- tumor growth (bioluminescence) ([3]; Example 7, 1 mg/kg i.v., late phase, 42 days after cell injection): tumor progression
- tumor growth (bioluminescence) ([3]; Example 7, 1 mg/kg i.v., middle phase, 21 days after cell injection): sustained suppression of tumor growth
- overall survival probability ([3]; Example 7, 1 mg/kg, late phase): 60%
- tumor growth (bioluminescence) ([3]; Example 7, 1 mg/kg, vs PBS and 0.1 mg/kg): significant repression in tumor growth
- apoptotic cells increased by [4]: 14%
- efflux Papp (B-A) [5]: 0.95 ×10⁻⁶ cm/s
- influx Papp (A-B) [5]: 4.39 ×10⁻⁶ cm/s
- effect on the viability [6]: little effect on the viability
